Results from patent US20240376098A1, “METHODS OF TREATMENT USING BCN057, BCN077 AND ANALOGS” (BCN Biosciences L.L.C., priority 2021, published 2024).

Columns and labels:
[1] = test system: Panc-1 cells; assay: RealTime-Glo Annexin V Apoptosis and Necrosis Assay; format: cell-based, human; details: serial dilutions, 10 minutes to 6 hours
Description: To validate the involvement of apoptosis in BCN057 induced cell death, the Panc1 cells with/without BCN057 were subjected to Anexin V staining. Anexin V staining was performed up to 6 hours and measured as a function of dose response of BCN057. […] FIG. 2B is a graph of Annexin V Apoptosis and Necrosis Assay in Panc-1 cells. Panc-1 cells were exposed to serial dilutions of BCN057 in the presence or absence of the RealTime-Glo™ Annexin V Apoptosis and Necrosis Assay Reagent. The plate was incubated at 37° C./5% CO2 and luminescence (Annexin V binding) was measured over a period of six hours. […] Apoptosis appeared to increase with increasing concentrations of BCN057.

[2] = test system: Bax, BCl-2, Akt-1 and Caspase-3 in Panc-1 cells; assay: qPCR of pro apoptosis and anti-apoptosis markers; format: cell-based, human; details: 1-hour post treatment
Text: FIG. 2C is a histogram of the results of qPCR analysis of pro apoptosis and anti-apoptosis markers in Panc-1 cells.

[3] = test system: PDL-1 expression on Panc-1 cells; assay: Western blot of PDL-1 on Panc-1 cells co-cultured with T-lymphocytes; format: cell-based, human; details: co-culture, 2.5, 5, 7.5 and 10 hrs
Description: Cell lines and cell culture: Panc-1 cells were cultured in DMEM medium supplemented with 10% Fetal Bovine Serum and maintained at 37° C.5% CO2. Human Peripheral Blood Pan-T Cells were cultured in serum free T cells expansion media with 10 ng/ml of rhIL-2, T-cell activator and expanded as per the manufacturer instructions. Panc-1 cells and T-Cells were grown and expanded separately in T75 flasks. For co-culture experiments with Panc-1 cell, 2.5 million T-cells per well were plated in the well using a 6 well plate. 2.5 million Panc-1 Cells were plated in the thinsert which was placed into the well of the 6 well plate in order to have the cells physically separated but share media. The cells were incubated for 24 hours at 37° C., 5% CO2. At 24 hours the media was replaced with media containing vehicle, or 10 uM BCN057 and were incubated for the following timepoints: 1 hr, 6 hr, 12 hr, 24 hrs. The Panc-1 cells were removed by gently scraping the cells from the thinsert.
Western Blot: Cells were harvested and lysed in cell lysis buffer on ice for 15 minutes and the lysate was centrifuged at 13,000 rpm at 4° C. for 10 minutes. The supernatant was transferred into a new tube for BCA protein quantification assay (Thermo Fisher Scientific) and the samples were normalized. 3× loading buffer (Cell Signaling) was added the protein sample and boiled for 5 minutes. […]

[4] = test system: LGR5 and BMI1 in Panc-1 cells; assay: qPCR of stem cell markers LGR5 and BMI1 in Panc-1 cells; format: cell-based, human; details: 10 μm
Description: QPCR: To compare the mRNA levels of BMI1 and LGR5 target genes in Panc-1 cells treated with BCN057 or vehicle. Quantitative PCR (qPCR) was used to measure the expression of the stem cell markers LGR5, and BMI1 which was detected by real-time PCR using the primer pairs listed in Table 1. Total RNA was extracted using TRIzol kit (Invitrogen, CA, USA)
Primers used for qPCR of LGR5 and BMI1 in pancreatic cancer cells Panc-1 treated with 10 μM of BCN057 or vehicle.
Others have implemented BMI1 as a key contributor to chemoresistance and invasiveness which is measurable in Panc-1.

[5] = target: T1, GSK3b (Homo sapiens, UniProt P49841); assay: Western blot of GSK3b phosphorylation at S-9 in Panc1 cells; format: cell-based; details: 10 μM BCN057, over time
T1 construct: endogenous in cells; host or cells: Panc-1
T1 sequence (P49841 whole entry): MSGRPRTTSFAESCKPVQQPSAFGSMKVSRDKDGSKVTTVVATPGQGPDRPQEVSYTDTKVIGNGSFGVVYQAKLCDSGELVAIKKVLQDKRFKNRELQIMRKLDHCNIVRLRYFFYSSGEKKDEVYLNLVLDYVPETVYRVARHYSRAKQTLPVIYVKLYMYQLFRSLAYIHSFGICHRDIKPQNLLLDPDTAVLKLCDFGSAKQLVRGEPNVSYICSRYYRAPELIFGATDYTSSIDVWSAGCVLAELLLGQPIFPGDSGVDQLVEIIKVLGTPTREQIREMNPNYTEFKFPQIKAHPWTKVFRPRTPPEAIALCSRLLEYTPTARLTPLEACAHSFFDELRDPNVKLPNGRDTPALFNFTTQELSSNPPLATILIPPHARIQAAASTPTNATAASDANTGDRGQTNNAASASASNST
Description: Western Blot: Cells were harvested and lysed in cell lysis buffer on ice for 15 minutes and the lysate was centrifuged at 13,000 rpm at 4° C. for 10 minutes. The supernatant was transferred into a new tube for BCA protein quantification assay (Thermo Fisher Scientific) and the samples were normalized. 3× loading buffer (Cell Signaling) was added the protein sample and boiled for 5 minutes. The samples were used for SDS-PAGE analysis and transferred to nitrocellulose membrane. The membrane was blocked with 5% BSA at room temperature for 1 hour and incubated with primary antibody at 4° C. overnight. The membrane was washed with 1×TBST 5 minutes for 3 times and incubated with horseradish peroxidase-conjugated secondary antibody for 1 hour at room temperature. The protein was visualized by SuperSignal West Pico Stable Peroxide Solution (Thermo Fisher Scientific). The blot was visualized by chemiluminescence using a BioRad Versadoc Imaging System.
To investigate the role BCN057 may have in the restoration of apoptosis in this cell line, the GSK3b-c-Jun relationship was assessed as it has been directly linked to apoptosis. Others have reported a link with GSK3b and c-Jun and apoptosis along with the fact that […] is over expressed in the oncogenic KRAS phenotype.

SMILES: COc1ccc2cc(-c3nc4ccc(C)cn4c3NCc3ccco3)c(=O)[nH]c2c1 [BCN057, 3-[(Furan-2-ylmethyl)-amino]-2-(7-methoxy-2-oxo-1,2-dihydro-quinolin-3-yl)-6-methyl-imidazo[1,2-a]pyridin-1-ium]
- Apoptosis (Annexin V binding, luminescence) [1]: Dose and time dependent increase in apoptosis
- Akt-1 expression [2]: did not affect
- Bax gene expression [2]: induces expression
- Bcl2 gene expression [2]: inhibited
- Caspase-3 expression [2]: did not affect
- PDL-1 expression on Panc-1 cells [3]: not appreciably changed
- Abundance of LGR5 and BMI1 cell populations [4]: no significant increase in the abundance
- GSK3b phosphorylation at S-9 [5]: rapid induction of phosphorylation at S-9
